Measured values reported in ChEMBL document CHEMBL1201862, “PubChem BioAssay data set” (2004).
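The compound was tested at five concentrations on cells cultured in 96-well plates, with a 48-hour exposure period. At the GI50, growth is halved.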 The source made the active and inactive calls. Cut-off read from the data, not from the text of the source: active = GI50 up to about 1.1 µM and inactive = higher.

Experiments:
Assay in all cases: NCI-60 cell line screen, 48 h
786-0 = tested on: 786-0
COLO 205 = tested on: COLO 205
HT-29 = tested on: HT-29
K562 = tested on: K562
MOLT-4 = tested on: MOLT-4
Malme-3M = tested on: Malme-3M
OVCAR-3 = tested on: OVCAR-3
SK-MEL-5 = tested on: SK-MEL-5
SW-620 = tested on: SW-620
TK-10 = tested on: TK-10
U-251 = tested on: U-251
UACC-257 = tested on: UACC-257
HL-60 = tested on: HL-60
HOP-62 = tested on: HOP-62
DU-145 = tested on: DU-145
MCF7 = tested on: MCF7
PC-3 = tested on: PC-3

O=C(N/C(=C\c1ccc(Br)cc1)c1nc2ccccc2s1)c1ccccc1
GI50 (786-0): > 100 µM (inactive) | GI50 (COLO 205): > 100 µM (inactive) | GI50 (HT-29): 69.2 µM (inactive) | GI50 (K562): 51.4 µM (inactive) | GI50 (MOLT-4): 29.9 µM (inactive) | GI50 (Malme-3M): > 100 µM (inactive) | GI50 (OVCAR-3): > 100 µM (inactive) | GI50 (SK-MEL-5): 36 µM (inactive) | GI50 (SW-620): > 100 µM (inactive) | GI50 (TK-10): > 100 µM (inactive) | GI50 (U-251): 56 µM (inactive) | GI50 (UACC-257): > 100 µM (inactive)

C=C1C(=O)OC2(C)C3CCC(C3)C12 (centres undefined)
GI50 (786-0): 47.9 µM (inactive) | GI50 (COLO 205): 23.1 µM (inactive) | GI50 (HL-60): 19.9 µM (inactive) | GI50 (HOP-62): > 100 µM (inactive) | GI50 (HT-29): 34.9 µM (inactive) | GI50 (K562): 33.3 µM (inactive) | GI50 (MOLT-4): 34 µM (inactive) | GI50 (Malme-3M): 44.1 µM (inactive) | GI50 (OVCAR-3): 53.5 µM (inactive) | GI50 (SK-MEL-5): 87.1 µM (inactive) | GI50 (SW-620): 47.2 µM (inactive) | GI50 (TK-10): 36.3 µM (inactive) | GI50 (U-251): > 100 µM (inactive)

COC(=O)[C@H]1CC(=O)C=C2CCCC21 (some centres undefined)
GI50 (786-0): > 100 µM (inactive) | GI50 (COLO 205): > 100 µM (inactive) | GI50 (HL-60): > 100 µM (inactive) | GI50 (HOP-62): > 100 µM (inactive) | GI50 (HT-29): > 100 µM (inactive) | GI50 (K562): > 100 µM (inactive) | GI50 (MOLT-4): > 100 µM (inactive) | GI50 (Malme-3M): > 100 µM (inactive) | GI50 (OVCAR-3): > 100 µM (inactive) | GI50 (SK-MEL-5): > 100 µM (inactive) | GI50 (SW-620): > 100 µM (inactive) | GI50 (TK-10): > 100 µM (inactive) | GI50 (U-251): > 100 µM (inactive) | GI50 (UACC-257): > 100 µM (inactive)

COc1cc(CNC2=NCCC2)cc(OC)c1OC
GI50 (786-0): > 100 µM (inactive) | GI50 (COLO 205): > 100 µM (inactive) | GI50 (DU-145): > 100 µM (inactive) | GI50 (HL-60): > 100 µM (inactive) | GI50 (HOP-62): > 100 µM (inactive) | GI50 (HT-29): > 100 µM (inactive) | GI50 (K562): 65.5 µM (inactive) | GI50 (MCF7): > 100 µM (inactive) | GI50 (MOLT-4): > 100 µM (inactive) | GI50 (Malme-3M): > 100 µM (inactive) | GI50 (OVCAR-3): > 100 µM (inactive) | GI50 (PC-3): > 100 µM (inactive) | GI50 (SK-MEL-5): > 100 µM (inactive) | GI50 (SW-620): > 100 µM (inactive) | GI50 (TK-10): > 100 µM (inactive) | GI50 (U-251): 53.3 µM (inactive) | GI50 (UACC-257): > 100 µM (inactive)

O=C(CSC(=S)N1CCOCC1)Nc1nc2c(s1)CCCC2
GI50 (786-0): 90.2 µM (inactive) | GI50 (COLO 205): > 100 µM (inactive) | GI50 (HL-60): 27.7 µM (inactive) | GI50 (HOP-62): > 100 µM (inactive) | GI50 (HT-29): > 100 µM (inactive) | GI50 (MOLT-4): > 100 µM (inactive) | GI50 (Malme-3M): 45.3 µM (inactive) | GI50 (OVCAR-3): 51.9 µM (inactive) | GI50 (SK-MEL-5): 35.5 µM (inactive) | GI50 (TK-10): > 100 µM (inactive) | GI50 (U-251): > 100 µM (inactive) | GI50 (UACC-257): 45.7 µM (inactive)

COc1cc(O)c(C(=O)CC(C)=O)c(OC)c1
GI50 (786-0): > 100 µM (inactive) | GI50 (COLO 205): > 100 µM (inactive) | GI50 (HL-60): > 100 µM (inactive) | GI50 (HOP-62): > 100 µM (inactive) | GI50 (HT-29): > 100 µM (inactive) | GI50 (K562): > 100 µM (inactive) | GI50 (MOLT-4): > 100 µM (inactive) | GI50 (Malme-3M): > 100 µM (inactive) | GI50 (OVCAR-3): > 100 µM (inactive) | GI50 (SK-MEL-5): > 100 µM (inactive) | GI50 (SW-620): > 100 µM (inactive) | GI50 (TK-10): > 100 µM (inactive) | GI50 (U-251): > 100 µM (inactive) | GI50 (UACC-257): > 100 µM (inactive)

COc1ccccc1-c1cc(=O)c2ccccc2[nH]1
GI50 (786-0): > 100 µM (inactive) | GI50 (COLO 205): > 100 µM (inactive) | GI50 (HL-60): 43.8 µM (inactive) | GI50 (HOP-62): > 100 µM (inactive) | GI50 (K562): 36.1 µM (inactive) | GI50 (MOLT-4): 52 µM (inactive) | GI50 (Malme-3M): 49 µM (inactive) | GI50 (OVCAR-3): > 100 µM (inactive) | GI50 (SW-620): 40.4 µM (inactive) | GI50 (TK-10): > 100 µM (inactive) | GI50 (U-251): > 100 µM (inactive) | GI50 (UACC-257): > 100 µM (inactive)

O=[N+]([O-])c1cccc(Nc2nc(Cl)nc(Cl)n2)c1
GI50 (786-0): > 100 µM (inactive) | GI50 (COLO 205): > 100 µM (inactive) | GI50 (HOP-62): > 100 µM (inactive) | GI50 (HT-29): > 100 µM (inactive) | GI50 (K562): > 100 µM (inactive) | GI50 (MOLT-4): > 100 µM (inactive) | GI50 (Malme-3M): > 100 µM (inactive) | GI50 (OVCAR-3): > 100 µM (inactive) | GI50 (SK-MEL-5): > 100 µM (inactive) | GI50 (SW-620): > 100 µM (inactive) | GI50 (U-251): > 100 µM (inactive) | GI50 (UACC-257): > 100 µM (inactive)

O=c1ccc2ccc(O)c3c4c(O)ccc5ccc(=O)c(c1c23)c54
GI50 (786-0): 2.31 µM (inactive) | GI50 (COLO 205): 1.91 µM (inactive) | GI50 (HL-60): 1.09 µM (active) | GI50 (HOP-62): 2.72 µM (inactive) | GI50 (HT-29): 4.27 µM (inactive) | GI50 (K562): 2.07 µM (inactive) | GI50 (MOLT-4): 2.11 µM (inactive) | GI50 (Malme-3M): 0.371 µM (active) | GI50 (OVCAR-3): 0.964 µM (active) | GI50 (SK-MEL-5): 1.14 µM (inactive) | GI50 (SW-620): 2.07 µM (inactive) | GI50 (TK-10): 2.67 µM (inactive) | GI50 (U-251): 1.29 µM (inactive) | GI50 (UACC-257): 1.49 µM (inactive)

O=S(=O)(O)SC/C=C\CSS(=O)(=O)O
GI50 (786-0): > 100 µM (inactive) | GI50 (COLO 205): > 100 µM (inactive) | GI50 (HL-60): > 100 µM (inactive) | GI50 (HOP-62): > 100 µM (inactive) | GI50 (HT-29): > 100 µM (inactive) | GI50 (K562): > 100 µM (inactive) | GI50 (MOLT-4): 35.8 µM (inactive) | GI50 (Malme-3M): > 100 µM (inactive) | GI50 (OVCAR-3): > 100 µM (inactive) | GI50 (SK-MEL-5): > 100 µM (inactive) | GI50 (SW-620): > 100 µM (inactive) | GI50 (TK-10): > 100 µM (inactive) | GI50 (U-251): 61.2 µM (inactive) | GI50 (UACC-257): > 100 µM (inactive)
